Results taken from PubChem BioAssay (NCI).
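Where inhibition never reached the appropriate level, the endpoint shown equals the highest concentration tested. Otherwise, values were interpolated linearly from a five-concentration, 48-hour dose response in 96-well plates. Definition used: TGI = concentration required for complete inhibition of growth.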

Columns and labels:
Assay in all cases: NCI tumour cell line growth inhibition, 48 h
786-0 renal = tested on: 786-0 renal
A498 renal = tested on: A498 renal
A549 NSCLC = tested on: A549 NSCLC
ACHN renal = tested on: ACHN renal
BT-549 breast = tested on: BT-549 breast
CAKI-1 renal = tested on: CAKI-1 renal
CCRF-CEM leukemia = tested on: CCRF-CEM leukemia
COLO 205 colon = tested on: COLO 205 colon
DU-145 prostate = tested on: DU-145 prostate
EKVX NSCLC = tested on: EKVX NSCLC
HCT-116 colon = tested on: HCT-116 colon
HCT-15 colon = tested on: HCT-15 colon
HL-60(TB) leukemia = tested on: HL-60(TB) leukemia
HOP-62 NSCLC = tested on: HOP-62 NSCLC
HOP-92 NSCLC = tested on: HOP-92 NSCLC
HS 578T breast = tested on: HS 578T breast
HT29 colon = tested on: HT29 colon
IGROV1 ovarian = tested on: IGROV1 ovarian
K-562 leukemia = tested on: K-562 leukemia
KM12 colon = tested on: KM12 colon
LOX IMVI melanoma = tested on: LOX IMVI melanoma
M14 melanoma = tested on: M14 melanoma
MALME-3M melanoma = tested on: MALME-3M melanoma
MCF7 breast = tested on: MCF7 breast
MDA-MB-231 breast = tested on: MDA-MB-231 breast
MDA-N = tested on: MDA-N
MOLT-4 leukemia = tested on: MOLT-4 leukemia
NCI-H226 lung = tested on: NCI-H226 lung
NCI-H23 lung = tested on: NCI-H23 lung
NCI-H460 lung = tested on: NCI-H460 lung
NCI-H522 lung = tested on: NCI-H522 lung
NCI/ADR-RES ovarian = tested on: NCI/ADR-RES ovarian
OVCAR-3 ovarian = tested on: OVCAR-3 ovarian
OVCAR-4 ovarian = tested on: OVCAR-4 ovarian
OVCAR-5 ovarian = tested on: OVCAR-5 ovarian
OVCAR-8 ovarian = tested on: OVCAR-8 ovarian
PC-3 prostate = tested on: PC-3 prostate
RPMI-8226 leukemia = tested on: RPMI-8226 leukemia
RXF 393 renal = tested on: RXF 393 renal
SF-268 CNS = tested on: SF-268 CNS
SF-295 CNS = tested on: SF-295 CNS
SF-539 CNS = tested on: SF-539 CNS
SK-MEL-2 melanoma = tested on: SK-MEL-2 melanoma
SK-MEL-28 melanoma = tested on: SK-MEL-28 melanoma
SK-MEL-5 melanoma = tested on: SK-MEL-5 melanoma
SK-OV-3 ovarian = tested on: SK-OV-3 ovarian
SN12C renal = tested on: SN12C renal
SNB-19 CNS = tested on: SNB-19 CNS
SNB-75 CNS = tested on: SNB-75 CNS
SR leukemia = tested on: SR leukemia
SW-620 colon = tested on: SW-620 colon
T-47D breast = tested on: T-47D breast
TK-10 renal = tested on: TK-10 renal
U251 CNS = tested on: U251 CNS
UACC-257 melanoma = tested on: UACC-257 melanoma
UACC-62 melanoma = tested on: UACC-62 melanoma
UO-31 renal = tested on: UO-31 renal
HCC-2998 colon = tested on: HCC-2998 colon
MDA-MB-435 = tested on: MDA-MB-435

NN/C(=N\S(=O)(=O)c1cc2ccccc2o1)Nc1ccc(Cl)cc1 gave a TGI (786-0 renal) of over 100 µM, a TGI (A498 renal) of over 100 µM and a TGI (A549 NSCLC) of over 100 µM. The TGI (ACHN renal) was over 100 µM, the TGI (BT-549 breast) was over 100 µM and the TGI (CAKI-1 renal) was over 100 µM. For the same molecule, the TGI (CCRF-CEM leukemia) was over 100 µM, the TGI (COLO 205 colon) was over 100 µM and the TGI (DU-145 prostate) was over 100 µM. The TGI (EKVX NSCLC) was over 100 µM, the TGI (HCT-116 colon) was over 100 µM and the TGI (HCT-15 colon) was over 100 µM. It also gave a TGI (HL-60(TB) leukemia) of over 100 µM, a TGI (HOP-62 NSCLC) of over 100 µM and a TGI (HOP-92 NSCLC) of 59.5 µM. It also gave a TGI (HS 578T breast) of 97.2 µM, a TGI (HT29 colon) of over 100 µM and a TGI (IGROV1 ovarian) of over 100 µM. For the same molecule, the TGI (K-562 leukemia) was over 100 µM, the TGI (KM12 colon) was over 100 µM and the TGI (LOX IMVI melanoma) was over 100 µM. It also gave a TGI (M14 melanoma) of over 100 µM, a TGI (MALME-3M melanoma) of over 100 µM and a TGI (MCF7 breast) of over 100 µM. The TGI (MDA-MB-231 breast) was over 100 µM, the TGI (MDA-N) was over 100 µM and the TGI (MOLT-4 leukemia) was over 100 µM. For the same molecule, the TGI (NCI-H226 lung) was over 100 µM, the TGI (NCI-H23 lung) was over 100 µM and the TGI (NCI-H460 lung) was over 100 µM. For the same molecule, the TGI (NCI-H522 lung) was 68.3 µM, the TGI (NCI/ADR-RES ovarian) was over 100 µM and the TGI (OVCAR-3 ovarian) was over 100 µM. For the same molecule, the TGI (OVCAR-4 ovarian) was over 100 µM, the TGI (OVCAR-5 ovarian) was over 100 µM and the TGI (OVCAR-8 ovarian) was over 100 µM. It also gave a TGI (PC-3 prostate) of over 100 µM, a TGI (RPMI-8226 leukemia) of over 100 µM and a TGI (RXF 393 renal) of 64.2 µM. The TGI (SF-268 CNS) was over 100 µM, the TGI (SF-295 CNS) was over 100 µM and the TGI (SF-539 CNS) was over 100 µM. The TGI (SK-MEL-2 melanoma) was over 100 µM, the TGI (SK-MEL-28 melanoma) was over 100 µM and the TGI (SK-MEL-5 melanoma) was over 100 µM. For the same molecule, the TGI (SK-OV-3 ovarian) was over 100 µM, the TGI (SN12C renal) was over 100 µM and the TGI (SNB-19 CNS) was over 100 µM. The TGI (SNB-75 CNS) was 85.8 µM, the TGI (SR leukemia) was over 100 µM and the TGI (SW-620 colon) was over 100 µM. It also gave a TGI (T-47D breast) of over 100 µM, a TGI (TK-10 renal) of over 100 µM and a TGI (U251 CNS) of over 100 µM. For the same molecule, the TGI (UACC-257 melanoma) was over 100 µM, the TGI (UACC-62 melanoma) was over 100 µM and the TGI (UO-31 renal) was over 100 µM.

In the case of CS(=O)(=O)N1CC(CI)c2ccc(O)cc21 (stereo not drawn), the TGI (786-0 renal) is reported as 12.7 µM, the TGI (A498 renal) is reported as 7.46 µM and the TGI (A549 NSCLC) is reported as 17 µM. For the same molecule, the TGI (ACHN renal) was 12.9 µM, the TGI (BT-549 breast) was 15.6 µM and the TGI (CAKI-1 renal) was 12.9 µM. The TGI (CCRF-CEM leukemia) was 17.4 µM, the TGI (COLO 205 colon) was 12.3 µM and the TGI (DU-145 prostate) was 9.36 µM. For the same molecule, the TGI (EKVX NSCLC) was 14.4 µM, the TGI (HCC-2998 colon) was 4.69 µM and the TGI (HCT-116 colon) was 12.6 µM. The TGI (HCT-15 colon) was 12.3 µM, the TGI (HL-60(TB) leukemia) was 6.09 µM and the TGI (HOP-62 NSCLC) was 7.62 µM. For the same molecule, the TGI (HOP-92 NSCLC) was 6.31 µM, the TGI (HS 578T breast) was over 100 µM and the TGI (HT29 colon) was 15.9 µM. For the same molecule, the TGI (IGROV1 ovarian) was 29.3 µM, the TGI (K-562 leukemia) was 24.2 µM and the TGI (KM12 colon) was 15 µM. The TGI (LOX IMVI melanoma) was 17.2 µM, the TGI (MALME-3M melanoma) was 4.43 µM and the TGI (MCF7 breast) was 15.1 µM. For the same molecule, the TGI (MDA-MB-231 breast) was 8.53 µM, the TGI (MDA-MB-435) was 4.2 µM and the TGI (MDA-N) was 6.4 µM. The TGI (MOLT-4 leukemia) was 9.65 µM, the TGI (NCI-H226 lung) was 10.7 µM and the TGI (NCI-H23 lung) was 5.32 µM. It also gave a TGI (NCI-H460 lung) of 10.9 µM, a TGI (NCI-H522 lung) of 2.99 µM and a TGI (NCI/ADR-RES ovarian) of 18 µM. The TGI (OVCAR-3 ovarian) was 7.71 µM, the TGI (OVCAR-4 ovarian) was 5.95 µM and the TGI (OVCAR-8 ovarian) was 11.7 µM. It also gave a TGI (PC-3 prostate) of 6.51 µM, a TGI (RPMI-8226 leukemia) of 19.1 µM and a TGI (RXF 393 renal) of 3.44 µM. For the same molecule, the TGI (SF-268 CNS) was 16.1 µM, the TGI (SF-295 CNS) was 13.4 µM and the TGI (SF-539 CNS) was 8.66 µM. For the same molecule, the TGI (SK-MEL-2 melanoma) was 5.49 µM, the TGI (SK-MEL-28 melanoma) was 14.3 µM and the TGI (SK-MEL-5 melanoma) was 3.26 µM. For the same molecule, the TGI (SN12C renal) was 15.8 µM, the TGI (SNB-75 CNS) was 6.02 µM and the TGI (SR leukemia) was 7.33 µM. It also gave a TGI (TK-10 renal) of 7.3 µM, a TGI (U251 CNS) of 10 µM and a TGI (UO-31 renal) of 11.6 µM.
